How the values were obtained:
[1] = system: caffeine-induced hyperlocomotor activity; experiment: Caffeine-induced locomotor activity in rat; format: in vivo, male Sprague-Dawley rats; conditions: 0.1, 0.3, 1 and 3 mg/kg PO, 60 min before caffeine 15 mg/kg s.c.; statistical significance at 1 and 3 mg/kg
Excerpt: Caffeine, a non-selective adenosine receptor antagonist, is a psychostimulant which increases rodent locomotor activity principally via blockade of A2A receptors (Br. J. Pharmacol., 2000, 129, 1465). These receptors are densely expressed on the terminals of GABAergic striatopallidal neurons in the indirect pathway of the basal ganglia, in which dopamine D2 receptors are co-expressed (J. Comp. Neurol., 1998, 401, 163; J. Comp. Neurol., 2001, 431, 331). Tonic activation of A2A receptors decreases the affinity of D2 receptors to dopamine and antagonism of A2A receptors facilitates dopaminergic signalling (Curr. Pharm. Des., 2008, 14, 1468). […] Male Sprague-Dawley rats (200-250 g) were housed in groups with a 12 h light/dark cycle (lights on at 07.00), at an ambient temperature of 21±2° C. and with standard pelleted diet and water adlibitum. Testing was carried out in the light phase. On the day of the experiment, animals were habituated to the locomotor cages for a 60-minute period. Subsequently, they were dosed with vehicle or Example 39 (0.1, 0.3, 1 and 3 mg/kg) by the oral route and returned to the appropriate locomotor cage. Example 39 was formulated in a vehicle of 10% DMAC, 10% solutol (Kolliphor HS15) and 80% water (v/v/v). […] Locomotor activity was assessed for a 2 h period after caffeine treatment. […] SEMs were calculated from the residuals of the statistical model. […]

[2] = Pharmacokinetic profiling in male Sprague-Dawley rats (IV and PO); format: in vivo; conditions: plasma, Rat PO, 3 mg/kg, n = 3, mean ± standard deviation
Method: The pharmacokinetic profiles of Example 39 were assessed in male Sprague-Dawley rats via intravenous (IV) and oral (per os, PO) routes of delivery. Pharmacokinetic data (mean values ±standard deviation) for Example 39 of the invention are detailed in Table 5.
Methods: For pharmacokinetic analysis, groups of three male Sprague-Dawley rats, ranging in weight between 200 and 230 g, were administered a single dose of Example 39 via IV or PO route, using the doses, dose volumes and vehicles specified in Table 5. Following dosing, blood samples were taken at several time points (pre-dose, 2 min, 5 min, 15 min, 30 min, 1 h, 3 h, 6 h, 12 h and 24 h for IV administration and pre-dose, 5 min, 15 min, 30 min, 1 hr, 2 h, 4 h, 8 h, 12 h and 24 h for PO administration) via serial tail vein bleeds, and centrifuged to separate plasma for analysis by LC-MS/MS. WinNonlin v8.2 statistics software (Pharsight Corporation, California, USA) was used to generate pharmacokinetic parameters using non-compartmental analysis.

human GPR52 = molecular target: T1, human GPR52 (Homo sapiens, UniProt Q9Y2T5); experiment: GPR52 Agonist Functional cAMP Assay; format: cell-based; conditions: for Emax: normalised to DMSO (0%) and maximal compound 7m (J. Med. Chem., 2014, 57, 5226) response (100%); for EC50: HEKf cells infected with human GPR52 BacMam, HTRF cAMP, 30 min at 37° C., read-out: pEC50 average (converted)
T1 construct: expressed in transfected cells; host or cells: HEKf suspension cells infected with BacMam virus
Method: HEKf suspension cells were infected for 24 h with 0.1% v/v human GPR52 expressing BacMam virus, a modified baculovirus designed for mammalian gene expression. Following BacMam infection, cells were pelleted by centrifugation (335 g, 5 min), resuspended in cell freezing medium (Sigma) and frozen at −150° C. until required. On experiment day, 25 nL GPR52 compound dilutions, prepared in DMSO, were stamped onto proxiplates (PerkinElmer) by a LabCyte ECHO acoustic dispenser. Frozen cells were thawed and resuspended in assay stimulation buffer (Cisbio) containing 0.5 mM 3-iso-butyl-1-methylxanthine (IBMX, Sigma) to achieve a density of 2000 cells per well. 10 μl cells were added to assay plates using a Multidrop Combi Reagent Dispenser (ThermoFisher) before centrifugation (335 g, 1 min). Cells were incubated with compounds at 37° C. for 30 min prior to addition of cAMP detection reagents (HiRange cAMP kit, Cisbio) which were prepared according to the manufacturer's instructions. Plates were shaken for 1 h at room temperature before reading on a PHERAstar FS plate reader (BMG Labtech) using standard HTRF settings. HTRF ratios were obtained by dividing the acceptor emissions (665 nm) by the donor emissions (620 nm) and multiplying by 10,000.

T1 sequence (Q9Y2T5 whole entry): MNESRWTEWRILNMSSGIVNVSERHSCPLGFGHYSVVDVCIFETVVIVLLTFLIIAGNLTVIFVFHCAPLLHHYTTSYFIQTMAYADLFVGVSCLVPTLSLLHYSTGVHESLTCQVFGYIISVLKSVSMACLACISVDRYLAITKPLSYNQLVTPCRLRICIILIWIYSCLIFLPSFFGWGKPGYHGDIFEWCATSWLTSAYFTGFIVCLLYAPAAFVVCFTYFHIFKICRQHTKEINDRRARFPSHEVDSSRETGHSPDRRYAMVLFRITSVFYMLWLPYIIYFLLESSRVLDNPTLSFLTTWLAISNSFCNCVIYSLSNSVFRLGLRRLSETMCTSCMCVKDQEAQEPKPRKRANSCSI

Row | Structure (SMILES) | effect on caffeine-induced hyperlocomotor response [1] | bioavailability [2] [%] | Emax (human GPR52) [%] | EC50 (human GPR52) [nM]
1 | Cc1nn(-c2cc(Cc3cc(F)cc(C(F)(F)F)c3)ccn2)c(CO)c1C(N)=O [Example 39, 1-(4-(3-fluoro-5-(trifluoromethyl)benzyl)pyridin-2-yl)-5-(hydroxymethyl)-3-methyl-1H-pyrazole-4-carboxamide] | dose-dependent reduction | 77.4 ± 14.9 | 101 | –
2 | CNC(=O)c1cn(-c2cccc(Cc3cc(F)cc(C(F)(F)F)c3)n2)nc1CO [Example 48, 1-(6-(3-fluoro-5-(trifluoromethyl)benzyl)pyridin-2-yl)-3-(hydroxymethyl)-N-methyl-1H-pyrazole-4-carboxamide] | – | – | 36 | 1580
3 | NC(=O)c1nn(-c2cc(Cc3cc(F)cc(C(F)(F)F)c3)ccn2)cc1CO [Example 49, 1-(4-(3-fluoro-5-(trifluoromethyl)benzyl)pyridin-2-yl)-4-(hydroxymethyl)-1H-pyrazole-3-carboxamide] | – | – | 93 | 63.1
4 | CNC(=O)c1nn(-c2cc(Cc3cc(F)cc(C(F)(F)F)c3)ccn2)cc1CO [Example 50, 1-(4-(3-fluoro-5-(trifluoromethyl)benzyl)pyridin-2-yl)-4-(hydroxymethyl)-N-methyl-1H-pyrazole-3-carboxamide] | – | – | 82 | 10
5 | NC(=O)c1nn(-c2cccc(Cc3cc(F)cc(C(F)(F)F)c3)n2)cc1CO [Example 51, 1-(6-(3-fluoro-5-(trifluoromethyl)benzyl)pyridin-2-yl)-4-(hydroxymethyl)-1H-pyrazole-3-carboxamide] | – | – | 83 | 501
6 | Cc1cnc(Cc2cc(F)cc(C(F)(F)F)c2)cc1-n1cc(C(N)=O)c(C)n1 [Example 52, 1-(2-(3-fluoro-5-(trifluoromethyl)benzyl)-5-methylpyridin-4-yl)-3-methyl-1H-pyrazole-4-carboxamide] | – | – | 100 | 100
7 | Cc1c(C(N)=O)c(CO)nn1-c1cc(Cc2cc(F)cc(C(F)(F)F)c2)ccn1 [Example 53, 1-(4-(3-fluoro-5-(trifluoromethyl)benzyl)pyridin-2-yl)-3-(hydroxymethyl)-5-methyl-1H-pyrazole-4-carboxamide] | – | – | 97 | 79.4
8 | NC(=O)c1cc(CO)n(-c2cc(Cc3cc(F)cc(C(F)(F)F)c3)ccn2)n1 [Example 54, 1-(4-(3-fluoro-5-(trifluoromethyl)benzyl)pyridin-2-yl)-5-(hydroxymethyl)-1H-pyrazole-3-carboxamide] | – | – | 92 | 79.4
9 | CNC(=O)c1ccn(-c2ccnc(Cc3cc(F)cc(C(F)(F)F)c3)c2)n1 [Example 55, 1-(2-(3-fluoro-5-(trifluoromethyl)benzyl)pyridin-4-yl)-N-methyl-1H-pyrazole-3-carboxamide] | – | – | 83 | 126
10 | CNC(=O)c1cnn(-c2cc(Cc3cc(F)cc(C(F)(F)F)c3)ccn2)n1 [Example 56, 2-(4-(3-fluoro-5-(trifluoromethyl)benzyl)pyridin-2-yl)-N-methyl-2H-1,2,3-triazole-4-carboxamide] | – | – | 84 | 100
11 | CNC(=O)c1nn(-c2cc(Cc3cc(F)cc(C(F)(F)F)c3)ccn2)cc1C [Example 57, 1-(4-(3-fluoro-5-(trifluoromethyl)benzyl)pyridin-2-yl)-N,4-dimethyl-1H-pyrazole-3-carboxamide] | – | – | 87 | 3.16
12 | CNC(=O)c1nn(-c2cc(Cc3cc(F)cc(C(F)(F)F)c3)ccn2)nc1C [Example 58, 2-(4-(3-fluoro-5-(trifluoromethyl)benzyl)pyridin-2-yl)-N,5-dimethyl-2H-1,2,3-triazole-4-carboxamide] | – | – | 92 | 15.8
13 | Cc1nn(-c2ccnc(C(O)c3cc(F)cc(C(F)(F)F)c3)c2)cc1C(N)=O (stereo not drawn) [Example 59, 1-(2-((3-fluoro-5-(trifluoromethyl)phenyl)(hydroxy)methyl)pyridin-4-yl)-3-methyl-1H-pyrazole-4-carboxamide] | – | – | 79 | 200

Source: patent publication US12655120B2, “GPR52 modulator compounds” (NXERA PHARMA UK LIMITED, priority 2020, dated 2026)
